Like-named read-outs stand apart in the source and are kept apart here.
Assays:
HL-60 human AML cells = assay: HL-60 IV AML xenograft model, survival study; format: in vivo, SCID mice
Method: In this study, Compound 1 antitumor activity in the HL-60 IV AML xenograft model was studies. In this model, HL-60 human AML cells engraft in host BM and internal organs (eg, spleen, liver) and animals develop progressive peripheral leukocytosis. Female severe combined immunodeficiency (SCID) mice were inoculated with HL-60 cells by tail vein injection. To understand the effect of Compound 1 on the xenografted HL-60 cells, animals were dosed intraperitoneal (IP) with vehicle or Compound 1 (0.5, 1, 2.5, and 5 mg/kg) once daily (QD)×5 between Weeks 3 and 4 post-engraftment (AP6516, survival study) or animals were dosed IP twice daily (BID) with vehicle or Compound 1 for 5 or 10 consecutive days (5 mg/kg BID×5 or 2.5 mg/kg, BID×10) between Weeks 6 and 8 post-engraftment (Study AP6982, % human CD33+[hCD33+] cells in BM).
Tumor burden from the peripheral blood of HL-60-bearing animals was assessed by fluorescence-activated cell sorting (FACS) at Week 7 post-tumor cell inoculation. […] Mice from the vehicle control and Compound 1 treatment groups succumbed to disease burden starting on Day 54 for the vehicle control group and between Day 51 and Day 57 for the Compound 1 treatment groups. […] One mouse (1/8) from the 2.5 mg/kg Compound 1-treated group survived to study termination on Day 162.

[1] = test system: BFU-E (erythroid progenitors); assay: cells; format: cell-based, human; conditions: for IC50: Homo sapiens
Method: Experimental design: human bone marrow (BM) CD34+ cells were used to evaluate the potential for BM toxicity induced by Compound 1. In order to test the effects of Compound 1 on the functionality of hematopoietic progenitors, colony forming assays were done by seeding BM CD34+ cells on MethoCult medium. Cells were seeded directly in MethoCult with Compound 1 or cultured in liquid medium with Compound 1 for 2, 4, or 8 hours and then seeded in compound-free MethoCult to evaluate the effect of different exposure times. Early apoptosis induced by Compound 1 on HSC was analyzed by flow cytometry.
Results. Colony forming units (CFU) of common granulocyte/erythrocyte/monocyte/megakaryocyte (CFU-GEMM), CFU of granulocyte/monocyte (CFU-GM), burst forming unit of erythrocytes (BFU-E), and CFU of erythrocytes (CFU-E) in cultures exposed to Compound 1 or DMSO were scored on STEMvision.
Bone marrow CD34+ cells from normal donors were incubated with Compound 1 in MethoCult medium. Colony numbers for CFU-GM and BFU-E progenitors were counted using STEMVision automatic colony counting instrument and software and normalized to the colony number of the DMSO control. Results plotted as percentage of DMSO control vs concentration of Compound 1 were used to determine IC50 values. Data are shown as mean standard error of the mean of n=3 technical replicates. Donors were HD10, HD14, HD18, and HD19.
FIGS. 33A and 33B provide, colony numbers after preincubation of bone marrow CD34+ cells with Compound 1 for 4 or 8 hours, respectively, in Iscove's medium, followed by incubation in MethoCult medium without Compound 1 for 14 days. FIG. 33C provides colony numbers after incubation of bone marrow CD34+ cells in MethoCult medium in continuous presence of Compound 1 for 14 days.

Namalwa = assay: CellTiter-Glo (CTG) cell proliferation assay, 72 hours; format: cell-based; conditions: Homo sapiens, Burkitt Lymphoma
Method: (§1) Preparation of Solutions of Test Article: Compounds were plated into black 384-well plates (Corning Inc.) to a final DMSO volume of 0.1% assuming a maximal volume of 50 μL. A 10-point dose response starting at 10 μM with a 1:3 dilution was printed in duplicate by acoustic dispense using the EDC ATS-100 platform.
(§2) Cell Proliferation Assays: The effect of Compound 1 on the proliferation/viability of the hematological cell lines (Table 1 Table, Table 2 and Table 3), THLE-2, or PBMCs was assessed after 72 hours incubation using CTG (Promega), according to manufacturer's instructions. Hematological cell lines were dispensed into compound plates by a Multidrop™ Combi Reagent Dispenser (Thermo Scientific, Waltham, Mass.) at a concentration of 0.1 to 0.3×10^6 cells per mL in a 50 μL total volume. THLE-2 cells were seeded out at 1000 cells per well in 50 μL volume and incubated for 72 hours. At 72 hours, 25 μL per well of CTG was dispensed by a Multidrop™ Combi Reagent Dispenser and adenosine triphosphate (ATP) release by viable cells was measured as relative luminescence units after 30 minutes using the Envision platform.

RC-K8 = assay: as above; format: cell-based; conditions: Homo sapiens, RCK8, Diffuse Large B-cell Lymphoma (activated B-cell like)
Method: as §1, §2

OCI-LY-10 = assay: as above; format: cell-based; conditions: Homo sapiens, OCI-Ly10, Diffuse Large B-cell Lymphoma (activated B-cell like)
Method: as §1, §2

Karpas 231 = assay: as above; format: cell-based; conditions: Homo sapiens, Acute Lymphoblastic Leukemia
Method: as §1, §2

Raji = assay: as above; format: cell-based; conditions: Homo sapiens, Burkitt Lymphoma
Method: as §1, §2

SR = assay: as above; format: cell-based; conditions: Homo sapiens, Acute Lymphoblastic Leukemia
Method: as §1, §2

Karpas 299 = assay: as above; format: cell-based; conditions: Homo sapiens, Anaplastic Large Cell Lymphoma
Method: as §1, §2

Daudi = assay: as above; format: cell-based; conditions: Homo sapiens, Burkitt Lymphoma
Method: as §1, §2

DG-75 = assay: as above; format: cell-based; conditions: Homo sapiens, Burkitt Lymphoma
Method: as §1, §2

BL-70 = assay: as above; format: cell-based; conditions: Homo sapiens, Burkitt Lymphoma
Method: as §1, §2

O=C1CCC(N2Cc3cc(CNC(=O)C(F)(F)c4ccc(Cl)cc4)ccc3C2=O)C(=O)N1 (stereo not shown) [Compound 1, 2-(4-chlorophenyl)-N-((2-(2,6-dioxopiperidin-3-yl)-1-oxoisoindolin-5-yl)methyl)-2,2-difluoroacetamide]
mice surviving to study termination on Day 162 (HL-60 human AML cells; 2.5 mg/kg group): 1/8
overall survival (HL-60 human AML cells; 0.5, 1, 2.5, 5 mg/kg IP QD×5 between Weeks 3 and 4 post-engraftment): No overall survival benefit
tumor burden from peripheral blood (FACS) (HL-60 human AML cells; Week 7 post-tumor cell inoculation, 0.5, 1, 2.5, 5 mg/kg IP QD×5, vs vehicle): No effect
reduction in number of BFU-E colonies ([1]; 8 hours exposure, Compound 1 ≥111 nM, donors HD46, HD47, HD48, HD50): more than 50%
IC50 ([1]; 8 hours exposure, donors HD46, HD47, HD48, HD50, read-out: individual IC50 values, BFU-E colonies): 30 to 150 nM
IC50 ([1]; CD34+ cells from four healthy donors, Compound 1 in MethoCult, read-out: IC50, inhibition of erythroid progenitors (BFU-E)): 32 to 131 nM
IC50 (Namalwa): 74.6 nM
IC50 (RC-K8): 956 nM
IC50 (OCI-LY-10): > 10000 nM
IC50 (Karpas 231): 790 nM
IC50 (Raji): > 10000 nM
IC50 (SR): > 10000 nM
IC50 (Karpas 299): > 10000 nM
IC50 (Daudi): 393 nM
IC50 (DG-75): > 10000 nM
IC50 (BL-70): 347 nM

From patent publication US11590117B2, “Treatment of a hematologic malignancy with 2-(4-chlorophenyl)-n-((2-(2,6-dioxopiperidin-3-yl)-1-oxoisoindolin-5-yl)methyl)-2,2-difluoroacetamide” (priority 2016, dated 2023)
